Results as given in US20100160443A1, “COMPOUNDS USEFUL FOR TREATING NEUROLOGICAL DISORDERS” (Yissum Research Development Company of The Hebrew …, priority 2003, published 2010).
Entries after “also recorded” stand apart in the source; their conditions may differ.

Tested on: tactile allodynia in rats with SNL neuropathy
Assay: Tactile allodynia (von Frey filaments) in the spinal nerve ligation (SNL) model of neuropathic pain
Assay type: in vivo, rat
Method: The effect on neuropathic pain (tactile allodynia) was measured 5-6 days following operation as disclosed above. Rats responding to mechanical stimuli of 10 g or less (in the operated leg) were eligible for the study and were included in the drug administration regime.
Briefly, under ketamine-xylazine anesthesia the rat was placed in a prone position and the left paraspinal muscles were separated from spinous processes at the L4-S2 level. Part of the L6 transverse process was removed and the L4-L6 spinal nerves were identified. The L5-L6 spinal nerves were isolated and tightly ligated and cut, distal to the dorsal root ganglion and proximal to the formation of the sciatic nerve. Following complete homeostasis the wound was sutured.
A volume of 4 ml/kg (volume of injected suspension/rat body weight) was then injected to the rats. […] The three drugs and the control vehicle were administered i.p. (intraperitoneally) to rats at postoperative days 7, 14 and 21 in a double blind randomized crossover manner.
The rat was placed on a metal mesh floor covered with a transparent plastic dome, a period of acclimatization was allowed prior to testing. VFFs were applied from underneath the mesh floor to the plantar surface of the foot. Each trial consisted of repeated applications of each of the VFFs in an ascending order for 5 times, each for a period of 1 second. testing between two consecutive ascending VFFs was separated by period of 2 min. If the rat withdrew the foot at least 3 times out of 5 at a specific VFF no further ascending filaments were tested and this filament was considered as a withdrawal threshold (response). Mechanical stimulus trials with the series of ascending VFF were repeated 2 times for a given time point. The repeated measurements were averaged and taken as the paw withdrawal threshold on a given time point.
The absolute threshold and the difference in the allodynic threshold (time point minus baseline) values were tested using Mann-Whitney Test and Kruskal-Wallis Nonparametric test (two tailed) followed by Dunn's Multiple comparison test. The ED50 (median effective dose) was calculated by using Probit analysis method.
Briefly, under ketamine-xylazine anesthesia (85 mg kg^−1, i.p and 13 mg kg^−1, i.p, respectively) rats were placed in a prone position and paraspinal muscles on the left were separated from the L4-S2 spinous processes. Part of the L6 transverse process was removed and the underlying L4-L6 spinal nerves were identified. The L5 and L6 spinal nerves were isolated, tightly ligated with 5-0 silk, and cut just distal to the ligature. The ligature was approximately 8 mm distal to the corresponding dorsal root ganglion (DRG). Following complete homeostasis the wound was sutured in layers, the skin closed with Michel clips, topical bacteriostatic power was applied, and 20000 units of duplo-penicillin was injected intramuscularly (i.m.).
We used a set of 9 nylon von Frey monofilaments (VFF, Semmes-Weinstein monofilaments, Stoelting, Wood Dale, Ill., USA) to quantify foot withdrawal in response to normally innocuous tactile stimuli. […] Forces were calibrated by lowering filaments onto the pan of an electronic balance until they just bent.
Rats were placed on a raised wire mesh screen (gaps 4 mm×4 mm), which allowed access to the plantar surface of the hindpaw from below. They were covered with a transparent plastic dome, 13 cm high, which prevented rearing on the hindlimbs. A period of 20 min was allowed for acclimation prior to sensory testing. The mid-plantar hindpaw skin just caudal to the footpads, half way between medial and lateral edges of the foot, was subjected to a series of 5 brief probes, spaced at about 1 s. Each such stimulus was sufficient to just bend the filament. Testing began with the filament with the weakest initial bending force (0.6 g). […] Response threshold was the bending force of the first monofilament in the series that evoked a criterion ≧⅗ responses.

With `CC(C)C(C(N)=O)C(C)C` [DID, diisopropylacetamide] the “antiallodynic effect / effectiveness for treating neuropathic pain” value (rat, in vivo) was “effective for treating neuropathic pain”, the “ED50 (tactile allodynia)” value (rat, in vivo, ip) was 58 mg/kg and the SNL-ED50 (rat, in vivo, ip) was 58 mg/kg. For the same compound, the “dose dependence of the antiallodynic effect” value (rat, in vivo, ip) was “dose-related antiallodynic activity”, the “lowest effective dose (significant increase of the allodynic threshold vs vehicle)” value (rat, in vivo, ip) was 20 mg/kg and the “rats with no response to 15 g or above VFF at the highest dose tested” value (rat, in vivo, ip) was 63%. For the same compound, the “time of maximal effect after administration” value (rat, in vivo, ip) was 120 min.

For `CCCC(CCC)C(=O)O` [VPA, Valproic acid, reference compound], the “rats relieved from tactile allodynia at the highest dose tested” value (VPA 400 mg kg^−1 i.p.) was 88%, the “dose dependence of the antiallodynic effect” value (i.p., rat) was “in a dose dependent manner; also recorded: in a dose-dependent manner” and the “lowest effective dose (significant increase of the allodynic threshold vs vehicle)” value (i.p., rat) was 300 mg/kg. The “time of maximal effect after administration” value (i.p., rat) was 60 min, the “ED50 (tactile allodynia)” value (i.p., rat, 60 min after dosing) was 269 mg/kg and the SNL-ED50 (i.p., rat, 60 min post injection, DID at 120 min) was 269 mg/kg. The ED50 (ip, 1 h, i.p., rat, 60 min after administration, protected = threshold of at least 15 g, read-out: ED50 (tactile allodynia threshold)) was 269 mg/kg.
